One series relates to pheromone glands. Description: de novo pheromone production by isolated pheromone glands in vitro (radiolabel incorporation). Type of series: cell-based, Helicoverpa (Heliothis) armigera. As to conditions: for inhibition of Hez-PBAN-activated sex pheromone production: Hez-PBAN 0.05 μM, inhibitor in μM range, FIG. 3. The source says:
(§1) Two distinct assay systems were applied in order to determine the inhibition of PBAN-induced pheromone production, elicited by aryloxyphenoxy propionates and cyclohexandione oximes such as diclofop, diclofop-methyl and tralkoxydim. The first assay monitors de novo pheromone production by isolated pheromone glands in vitro according to the method of Rafaeli and Gileadi^7 (Experimental Section). The second assay, monitors sex pheromone production in vivo by decapitated female moths that are incapable of pheromone production unless stimulated by PBAN (Experimental section).
Intersegmental membranes (pheromone glands) between the eighth and ninth abdominal segments were removed from 2-3 day old virgin females. After 1 h preincubation in Pipes buffered incubation medium (pH 6.6), pheromone glands were dried on tissue paper and then transferred individually to 10 μl incubation medium containing 0.25 μCi [1-^14C]-acetate (56 mCi/mmole, NEN, Boston, USA) in the presence or absence of Hez-PBAN (Peninsula Labs, Belmont, Calif., USA) and in the additional presence or absence of either diclofop acid or diclofop methyl ester (FIG. 3).
Incubations were performed for 3 h at room temperature. In order to measure the incorporation of radiolabel from [1-^14C] sodium acetate, the glands were extracted in 200 μl hexane for 0.5 h at room temperature and a 100 μl aliquot of the upper hexane phase was measured in a β-counter. Relative levels of incorporation into the pheromone component were determined using HPLC analysis as reported previously^9 using a Vydac C18 reversed phase column and a linear gradient from 40-55% acetonitrile. Fractions were collected every minute and radioactivity determined. The radioactive elution profile (shown in FIG. 8) was compared to known elution times of standard palmitic acid, Z11-hexadecenol and the main pheromone product of H. armigera^10, Z11-hexadecenal (Sigma, USA). In some experiments [1-^14C]-acetyl CoA (Amersham Pharmacia Biotech, UK.) or [9, 10-^3H]-palmitic acid (Life Science Products, Inc, Texas, USA) were substituted for [1-^14C]-acetate in order to measure relative incorporation into pheromone from these precursors. The effect of palmitoyl CoA (Sigma) was also tested in a different set of experiments using [^14C]-acetate as precursor (as shown in FIG. 2).

The next series deals with decapitated female moths. Description: sex pheromone production in vivo by decapitated female moths. Also noted: species or system Helicoverpa (Heliothis) armigera. As to conditions: diclofop acid 10 μmol/female, PBAN 1 pmol/female, FIG. 7.
From the text: as §1
In vivo sex pheromone production by female moths was determined in 2-day old females. The females were decapitated during the photophase of day 1 and subsequently maintained for an additional 24 h, after which they were injected with either physiological saline (control) or 1 pmol/moth Hez-PBAN in saline, and in the additional presence or absence of diclofop acid. Ovipositor tips (containing pheromone glands) were removed 2 h after injection and extracted for 10 min in hexane, containing 25 ng tridecanyl acetate (Sigma, USA) as internal standard. […] Z11-hexadecenal was quantified using the internal standard quantification methods as described previously^9.

Series [1] relates to bees and beneficial insects. The note with it: field conditions; cited from earlier work.
Another series concerns ACCase enzyme. Nature of the series: Inhibition of ACCase (partially purified enzyme from pheromone glands). The class given is biochemical, Helicoverpa (Heliothis) armigera. The note with it: in vitro, enzyme from pheromone producing tissue, FIG. 6. The source says:
The […] enzyme was extracted from pheromone glands separated on TMAE column and the eluted enzyme was used. Acetyl CoA was used as a substrate that requires HCO3^- where radiolabeled HCO3^- was used. In the presence of the enzyme, the substrate will be converted to radiolabeled malonyl CoA (see FIG. 1). Therefore, the difference in the level of incorporation of the radiolabeled malonyl CoA in the presence and absence of the […] enzyme was used to obtain the activity level of endogenous […] in the presence or absence of herbicides (FIG. 6).

Regarding `CCCCCCCCCCCCCCCC(=O)O` [palmitic acid], the “effect on the pheromonotropic action of PBAN” value with pheromone glands (addition of palmitic acid, data not shown) was “did not affect”.

In the case of `CC(Oc1ccc(Oc2ccc(Cl)cc2Cl)cc1)C(=O)O` (centres unmarked) [diclofop acid], the “inhibition of Hez-PBAN-activated sex pheromone production” value in the series on pheromone glands (in vitro) is reported as “significantly inhibits”. In the series with decapitated female moths, the “inhibition of in vivo synthesis of pheromone Z11-hexadecenal induced by PBAN” value is reported as “inhibited the production of the pheromone”. Further, the “toxicity to bees and beneficial insects” value in series [1] was “relatively non-toxic”. The “inhibition of partially purified ACCase enzyme activity” value in the series on ACCase enzyme is “may inhibit directly”.

Consider `CCO/N=C(\CC)C1=C(O)CC(c2c(C)cc(C)cc2C)CC1=O` (centres unmarked) [tralkoxydim], for which the “concentration at which the inhibitory effect occurs” value in the series with pheromone glands (in vitro, Hez-PBAN 0.01 μM, FIG. 5) was determined as 100 µM.

For `COC(=O)C(C)Oc1ccc(Oc2ccc(Cl)cc2Cl)cc1` (centres unmarked) [diclofop-methyl], the “inhibition of Hez-PBAN-activated sex pheromone production” value in the series with pheromone glands (in vitro) was “significantly inhibits pheromone production to the same extent as the acid”.

As for `CCCCCCCCCCCCCCCC(=O)SCCNC(=O)CCNC(=O)[C@H](O)C(C)(C)COP(=O)(O)OP(=O)(O)OC[C@H]1O[C@@H](n2cnc3c(N)ncnc32)[C@H](O)[C@@H]1OP(=O)(O)O` [palmitoyl-CoA], the “effect on production of pheromone” value in the series on pheromone glands (in vitro, 0.01 μM Hez-PBAN, 14C-acetate, FIG. 2) is reported as “inhibiting its biosynthesis”.

(Values after patent US20060039943A1, “Acetyl-CoA carboxylase inhibitors for use as pesticides” (Yissum Research Development Company fo the Hebrew University, priority 2003, published 2006).)
